Reference: patent US8067424B2, “Selective inhibitors for cyclin-dependent kinases” (Emory University, priority 2007, dated 2011)
Like-named read-outs stand apart in the source and are kept apart here.

What was measured:
[1] = target: T1, CDK7 complex (CDK7, Cyclin H, MAT1) (Homo sapiens, UniProt P50613); assay: CDK7/CycH/MAT1 trimeric complex kinase assay (PKLight luciferase); assay type: biochemical; details: for IC50: Table 2; for remaining activity at 0.1 µM / CDK7 % remaining kinase activity after incubation with 100 nM of compound: 100 nM, mean of three (standard deviation); for remaining activity at 0.1 µM: read-out: CDK7 % remaining kinase activity after incubation with 100 nM of compound
T1 construct: purchased Proqinase GmbH, Germany
T1 sequence (P50613 whole entry): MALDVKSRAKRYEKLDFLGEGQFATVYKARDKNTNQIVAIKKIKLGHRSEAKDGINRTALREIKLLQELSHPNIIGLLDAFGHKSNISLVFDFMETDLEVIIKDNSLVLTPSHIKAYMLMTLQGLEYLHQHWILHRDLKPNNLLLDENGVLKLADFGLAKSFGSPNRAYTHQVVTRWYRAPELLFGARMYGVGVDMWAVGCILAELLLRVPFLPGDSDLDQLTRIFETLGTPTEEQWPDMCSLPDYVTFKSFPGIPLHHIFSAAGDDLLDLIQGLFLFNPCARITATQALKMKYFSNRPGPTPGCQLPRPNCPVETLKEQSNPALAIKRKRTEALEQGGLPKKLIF
T1 sequence (P51946 whole entry partner): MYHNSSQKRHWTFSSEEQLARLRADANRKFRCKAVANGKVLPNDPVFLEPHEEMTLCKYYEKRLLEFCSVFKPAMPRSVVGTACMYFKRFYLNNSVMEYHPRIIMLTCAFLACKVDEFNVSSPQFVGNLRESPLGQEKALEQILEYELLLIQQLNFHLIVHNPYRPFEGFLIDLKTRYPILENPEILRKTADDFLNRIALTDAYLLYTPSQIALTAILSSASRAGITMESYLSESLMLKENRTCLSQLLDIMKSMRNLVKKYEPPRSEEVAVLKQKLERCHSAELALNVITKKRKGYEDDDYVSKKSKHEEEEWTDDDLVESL
T1 sequence (P51948 whole entry partner): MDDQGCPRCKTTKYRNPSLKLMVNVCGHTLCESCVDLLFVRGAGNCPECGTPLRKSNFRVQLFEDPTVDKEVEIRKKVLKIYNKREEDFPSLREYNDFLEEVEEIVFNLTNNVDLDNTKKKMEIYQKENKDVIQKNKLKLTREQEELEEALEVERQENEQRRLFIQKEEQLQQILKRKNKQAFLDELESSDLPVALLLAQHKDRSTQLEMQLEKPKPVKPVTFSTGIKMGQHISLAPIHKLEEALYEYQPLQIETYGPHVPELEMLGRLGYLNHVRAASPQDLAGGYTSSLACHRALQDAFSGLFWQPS
Method: (§1) Prepared test compounds, prepared at concentrations of 1000, 100, 10, 1 and 0.1 μM. Diluted 1 in 40 in ddH2O and added 1 μl of test compound or DMSO (controls). • 3. Incubated at 30° C. for 30 mins in a water bath. • 4. Added 10 µl of ATP […] per reaction to get a final concentration of 2 μM ATP. • 5. Made up to 25 μl total volume with ddH2O • 6. Incubated for 20 min at 30° C. in a water bath • 7. Used the PKLight Kinase assay (Cambrex, UK), add to each reaction 10 μl of stop reaction and mix thoroughly. Incubated at room temp for 10 min. • 8. Added 20 μ1 Luciferase reaction mixture (Cambrex, UK) per reaction, and further incubated at room temp for 10 mins and determined luciferase activities according to manufacturer's methods. Kinase reactions were added to 96 well microplates and luciferase activities determined using a Packard TopCount NXT™ luminescent counter (TopCount 9904). The luminometer was programmed to take a read time of 0.1 integrated reading and emission of light was detectable at 560 nm. • 9. All kinase inhibition assays were carried out in triplicate. As the bioluminescent signal is inversely proportional to kinase activity, all values were deducted from the no enzyme control. These values were then plotted utilizing the enzyme control as a reference to 100% activity and compared to all other values.

CDK2/cyclin A complex = target: T2, CDK2/cyclin A complex (Homo sapiens, UniProt P24941); assay: CDK2/cyclin A kinase assay (as for CDK7); assay type: biochemical; details: for remaining activity at 0.1 µM: read-out: CDK2 % remaining kinase activity after incubation with 100 nM of compound
T2 construct: purchased Proqinase GmbH, Germany
Method: as §1
(§2) Inhibition of CDK2 was assessed using 50 ng CDK2/cyclin A complex (Proqinase GmbH, Germany), as above for CDK7 Inhibition of CDK9 was assessed using 100 ng CDK9/cyclin T complex (Proqinase GmbH, Germany), as above for CDK7.

CDK9/cyclin T complex = target: T3, CDK9/cyclin T complex (Homo sapiens, UniProt P50750); assay: CDK9/cyclin T kinase assay (as for CDK7); assay type: biochemical; details: for remaining activity at 0.1 µM: 100 nM, mean of three (standard deviation), read-out: CDK9 % remaining kinase activity after incubation with 100 nM of compound
T3 construct: purchased Proqinase GmbH, Germany
T3 sequence (P50750 whole entry): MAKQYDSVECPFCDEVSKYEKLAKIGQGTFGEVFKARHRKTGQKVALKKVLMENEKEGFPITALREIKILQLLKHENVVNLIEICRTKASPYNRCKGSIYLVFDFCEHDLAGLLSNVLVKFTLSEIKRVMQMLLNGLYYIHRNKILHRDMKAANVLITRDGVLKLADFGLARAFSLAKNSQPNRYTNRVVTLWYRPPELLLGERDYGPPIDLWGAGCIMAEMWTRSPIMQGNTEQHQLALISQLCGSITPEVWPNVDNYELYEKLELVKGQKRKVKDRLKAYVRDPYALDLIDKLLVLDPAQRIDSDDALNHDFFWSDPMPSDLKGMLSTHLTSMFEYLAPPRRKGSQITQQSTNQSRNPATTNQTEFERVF
T3 sequence (O60563 whole entry partner): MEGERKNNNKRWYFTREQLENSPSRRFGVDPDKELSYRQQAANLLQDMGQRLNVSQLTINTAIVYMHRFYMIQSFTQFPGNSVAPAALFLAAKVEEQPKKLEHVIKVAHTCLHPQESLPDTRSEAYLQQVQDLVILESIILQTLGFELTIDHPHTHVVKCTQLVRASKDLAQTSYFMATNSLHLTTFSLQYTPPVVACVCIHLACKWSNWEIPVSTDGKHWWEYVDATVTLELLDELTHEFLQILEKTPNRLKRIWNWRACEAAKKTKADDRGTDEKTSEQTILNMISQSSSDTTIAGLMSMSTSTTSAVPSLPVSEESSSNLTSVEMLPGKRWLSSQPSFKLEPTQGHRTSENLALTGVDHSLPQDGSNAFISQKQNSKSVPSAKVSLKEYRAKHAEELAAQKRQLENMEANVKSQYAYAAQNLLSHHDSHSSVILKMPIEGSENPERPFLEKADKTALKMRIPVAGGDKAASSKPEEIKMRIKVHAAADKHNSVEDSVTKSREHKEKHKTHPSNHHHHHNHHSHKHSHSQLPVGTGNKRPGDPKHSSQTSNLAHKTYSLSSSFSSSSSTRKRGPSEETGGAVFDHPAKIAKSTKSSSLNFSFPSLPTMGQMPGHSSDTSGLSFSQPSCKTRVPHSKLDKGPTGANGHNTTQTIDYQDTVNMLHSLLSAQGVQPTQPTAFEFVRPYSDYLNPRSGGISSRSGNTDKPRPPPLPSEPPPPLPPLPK
Method: as §1, §2

CDK4 = CDK4 (Homo sapiens, UniProt P11802); assay: CDK4 in vitro kinase inhibition (protocol similar to Example 14); assay type: biochemical; details: for remaining activity at 0.1 µM: 100 nM, mean of three (standard deviation), read-out: CDK4 % remaining kinase activity after incubation with 100 nM of compound
CDK4, sequence (P11802 whole entry): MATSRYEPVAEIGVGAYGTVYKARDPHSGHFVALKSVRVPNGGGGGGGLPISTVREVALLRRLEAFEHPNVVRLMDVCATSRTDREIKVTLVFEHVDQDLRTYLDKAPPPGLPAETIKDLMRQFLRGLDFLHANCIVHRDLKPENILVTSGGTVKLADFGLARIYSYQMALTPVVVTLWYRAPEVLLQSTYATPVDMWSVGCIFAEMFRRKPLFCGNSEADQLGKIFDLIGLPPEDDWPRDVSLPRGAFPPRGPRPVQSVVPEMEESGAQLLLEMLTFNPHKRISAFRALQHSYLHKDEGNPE
CDK4, sequence (P24385 whole entry partner): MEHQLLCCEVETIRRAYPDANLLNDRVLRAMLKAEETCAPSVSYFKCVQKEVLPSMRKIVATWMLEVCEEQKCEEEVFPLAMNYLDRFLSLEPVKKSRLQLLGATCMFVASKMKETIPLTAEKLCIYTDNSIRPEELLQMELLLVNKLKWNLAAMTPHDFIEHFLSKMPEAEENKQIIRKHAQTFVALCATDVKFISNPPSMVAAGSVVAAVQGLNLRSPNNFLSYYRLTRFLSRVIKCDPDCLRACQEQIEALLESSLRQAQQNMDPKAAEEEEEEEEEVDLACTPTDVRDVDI
Method: as §1
(§3) This example provides in vitro kinase inhibition data for various compounds within the scope of the invention versus CDK 2, CDK 4, CDK, 5, CDK 7 and CDK 9. The protocol was similar to that shown in Example 14 Inhibition of the protein kinases was performed in triplicate using each compound at 100 nM.
(§4) This example provides in vitro kinase inhibition data for various compounds within the scope of the invention versus CDK 2, CDK 4, CDK, 5, CDK 7 and CDK 9.

CDK 5 = CDK 5 (Homo sapiens, UniProt Q00535); assay: CDK5 in vitro kinase inhibition (protocol similar to Example 14); assay type: biochemical; details: 100 nM; mean of three (standard deviation); read-out: CDK5 % remaining kinase activity after incubation with 100 nM of compound
CDK 5, sequence (Q00535 whole entry): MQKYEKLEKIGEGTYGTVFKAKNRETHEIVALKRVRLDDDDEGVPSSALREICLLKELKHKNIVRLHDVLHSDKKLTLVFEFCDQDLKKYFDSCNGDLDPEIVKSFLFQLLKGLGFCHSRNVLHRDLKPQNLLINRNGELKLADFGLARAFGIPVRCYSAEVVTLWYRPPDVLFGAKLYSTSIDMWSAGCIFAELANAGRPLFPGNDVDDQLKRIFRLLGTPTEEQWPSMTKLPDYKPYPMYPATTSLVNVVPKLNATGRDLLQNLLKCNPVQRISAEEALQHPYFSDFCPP
CDK 5, sequence (Q15078 whole entry partner): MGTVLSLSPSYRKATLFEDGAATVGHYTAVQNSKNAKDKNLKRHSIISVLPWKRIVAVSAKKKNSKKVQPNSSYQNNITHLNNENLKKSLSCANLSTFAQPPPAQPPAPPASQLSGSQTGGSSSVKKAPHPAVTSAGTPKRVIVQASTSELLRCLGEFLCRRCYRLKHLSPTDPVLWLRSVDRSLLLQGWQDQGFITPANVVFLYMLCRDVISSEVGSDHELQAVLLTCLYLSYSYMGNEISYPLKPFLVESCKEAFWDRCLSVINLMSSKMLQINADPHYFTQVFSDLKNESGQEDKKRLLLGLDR
Method: as §1, §3, §4

MCF-7 cell line = assay: cells; assay type: cell-based; details: MCF-7, SRB assay, 24 hours; for IC (total growth inhibition): read-out: TGI; for IC50: mean of three experiments, read-out: IC50
Method: In the SRB assay, sixteen hours following seeding of 3×10^3 MCF-7 cells in 96-well plates in DMEM containing 10% FCS, the medium was replaced with fresh medium supplemented with the compound of interest, or an equivalent volume of the vehicle control (DMSO), at concentrations, ranging from 0.1 to 100 μM. The compounds were added to three well to provide replicates. The cells were fixed after 24 hours, using 40% (w/v) TCA, for one hour at 4° C., washed five times with distilled, deionised H2O, followed by incubation with 0.4% (w/v) sulphorhodamine B (SRB) in 1% acetic acid for one hour at room temperature. Excess dye was removed with five washes with 1% acetic acid and drying at room temperature. Absorbance at 480 nm was determined following solubilisation of the dye by the addition of 100 μl of 10 mM Tris base to each well.
SRB values (absorbance at 480 nm) for the vehicle control (DMSO) were set at 100% and absorbance at 480 nm for the compound treatments were calculated relative to the control.

[2] = 100 nM, mean of three (standard deviation)
[3] = Table 7, mean of three experiments, read-out: CDK2 kinase inhibition in vitro (IC50)

Row | SMILES | remaining activity at 0.1 µM (CDK2/cyclin A complex; [2]) | LC50 (concentration causing 50% net cell kill) (MCF-7 cell line; Homo sapiens, MCF7, 24 h) | IC (total growth inhibition) (MCF-7 cell line; Homo sapiens, MCF7, 24 h) | IC50 (MCF-7 cell line; Homo sapiens, MCF7) | remaining activity at 0.1 µM [1] | further results
1 | CC(C)Nc1cc(NCc2ccccc2)n2ncc(C(C)C)c2n1 [Example 2, N^7-Benzyl-N^5,3-diisopropylpyrazolo[1,5-a]pyrimidine-5,7-diamine] | – | – | – | – | – | IC50 [1]: > 1 µM; IC50 (CDK2/cyclin A complex; Table 2, read-out: CDK2 IC50): ~0.1 µM; IC50 (CDK9/cyclin T complex; Table 2, read-out: CDK9 IC50): > 1 µM
2 | CC(C)c1cnn2c(NCc3ccccc3F)cc(N[C@@H](CO)CCCCCCc3ccc4ccccc4n3)nc12 [ICEC-0327] | 16% | 29 µM | 36 µM | 47 µM | – | remaining activity at 0.1 µM (CDK9/cyclin T complex): 51%; remaining activity at 0.1 µM (CDK4): 99%; remaining activity at 0.1 µM (CDK 5): 96%
3 | CC(C)c1cnn2c(NCc3ccccc3)cc(N[C@@H](CO)CCCCCCc3cncnc3)nc12 [ICEC-0174] | 31.5% | 35 µM | > 100 µM | > 100 µM | – | IC50 (CDK2/cyclin A complex; [3]): 0.1 µM; remaining activity at 0.1 µM (CDK9/cyclin T complex): 92%; remaining activity at 0.1 µM (CDK4): 99%; IC50 (CDK4; Table 7, mean of three experiments): > 1 µM; remaining activity at 0.1 µM (CDK 5): 97%
4 | CC(C)c1cnn2c(NCc3ccccc3F)cc(NCCCCCCC#N)nc12 [ICEC-0186] | 9.3% | 20 µM | 50 µM | > 100 µM | – | remaining activity at 0.1 µM (CDK9/cyclin T complex): 98%; IC50 (CDK9/cyclin T complex; Table 7, mean of three experiments, read-out: CDK9 kinase inhibition in vitro (IC50)): 0.16 µM; remaining activity at 0.1 µM (CDK4): 95%; remaining activity at 0.1 µM (CDK 5): 94%
5 | CC[C@H](CO)Nc1cc(NCc2ccccc2)n2ncc(C(C)C)c2n1 [Example 6] | – | – | – | – | – | IC50 [1]: 0.07 µM; IC50 (CDK2/cyclin A complex; Table 2, read-out: CDK2 IC50): > 1 µM; IC50 (CDK9/cyclin T complex; Table 2, read-out: CDK9 IC50): ~0.1 µM
6 | CC(C)c1cnn2c(NCc3ccccc3)cc(NCCOCCO)nc12 [Example 3, 2-(2-(7-(Benzylamino)-3-isopropylpyrazolo[1,5-a]pyrimidin-5-ylamino)ethoxy)ethanol] | – | – | – | – | – | IC50 [1]: 0.032 µM; IC50 (CDK2/cyclin A complex; Table 2, read-out: CDK2 IC50): > 1 µM; IC50 (CDK9/cyclin T complex; Table 2, read-out: CDK9 IC50): ~0.1 µM
7 | CC(C)c1cnn2c(NCc3ccccc3F)cc(NCCCCCNc3cc(NCc4ccccc4F)n4ncc(C(C)C)c4n3)nc12 [ICEC0241] | 77% | 75 µM | > 200 µM | > 200 µM | 73% | –
8 | CC(C)c1cnn2c(NCc3ccccc3)cc(NCCN3CCNCC3)nc12 [ICEC0216] | 68% | 26 µM | 42 µM | > 200 µM | 50% | –
9 | CC(C)c1cnn2c(NCc3ccc(Cl)cc3Cl)cc(Cl)nc12 [ICEC0239] | 85% | 59 µM | 200 µM | > 200 µM | 82% | –
10 | CC(C)c1cnn2c(NCc3ccccc3)cc(NCC/C=C/CCN)nc12 [ICEC0278] | 72% | 45 µM | – | – | 21% | –
11 | CC(C)c1cnn2c(NCc3ccccc3F)cc(N[C@@H](CO)CCCCCCN)nc12 [Example 12] | – | – | – | – | – | IC50 [1]: ~0.1 µM; IC50 (CDK2/cyclin A complex; Table 2, read-out: CDK2 IC50): > 1 µM; IC50 (CDK9/cyclin T complex; Table 2, read-out: CDK9 IC50): 0.1 to 1 µM
12 | CC(C)c1cnn2c(N[C@H](C)c3ccccc3)cc(NCCCCCCN)nc12 [ICEC0274] | 96% | 8 µM | 23 µM | 200 µM | 100% | IC50 (CDK2/cyclin A complex; [3]): 0.03 µM
13 | CC(C)c1cnn2c(NCc3ccccc3F)cc(NCC3CCC(CN)CC3)nc12 (centres unmarked) [ICEC0213] | 90% | – | 119 µM | > 200 µM | – | CDK7 % remaining kinase activity after incubation with 100 nM of compound [1]: 81% (0.2); LC50 (concentration causing 50% net cell kill) (MCF-7 cell line): 31 µM
14 | CC(C)c1cnn2c(NCc3ccccc3F)cc(NCC3CCC(CN)CC3)nc12 (centres unmarked) [ICEC0214] | – | – | – | – | – | CDK7 % remaining kinase activity after incubation with 100 nM of compound [1]: 60% (5.1); CDK2 % remaining kinase activity after incubation with 100 nM of compound (CDK2/cyclin A complex; [2]): 74% (3.3); LC50 (concentration causing 50% net cell kill) (MCF-7 cell line): 140 µM; IC50 (MCF-7 cell line): > 200 µM; IC (total growth inhibition) (MCF-7 cell line): >200 µM
15 | CC(C)c1cnn2c(NCc3ccccc3F)cc(NCCCCCCc3ccc(N)nc3)nc12 [ICEC0211] | 96% | 39 µM | 79 µM | > 200 µM | 83% | –
16 | CC(C)c1cnn2c(NCc3ccccc3)cc(Cl)nc12 [ICEC0006, N-Benzyl-5-chloro-3-isopropylpyrazolo[1,5-a]pyrimidin-7-amine] | 75% | 139 µM | > 200 µM | > 200 µM | 65% | –
17 | CC(C)c1cnn2c(NCc3ccc(Cl)cc3)cc(Cl)nc12 [ICEC0244] | 73% | 59 µM | 117 µM | > 200 µM | 81% | –
18 | CC(C)c1cnn2c(NCc3ccccc3F)cc(NCCCCCCCNS(C)(=O)=O)nc12 [ICEC0212] | 91% | 41 µM | 71 µM | 192 µM | 63% | –
19 | CC(C)c1cnn2c(NCc3ccccc3F)cc(N[C@H]3CC[C@H](N)CC3)nc12 [ICEC0229] | 60% | 27 µM | 42 µM | 109 µM | 54% | –
